# Patent US20100204161A1, “Substances and Pharmaceutical Compositions for the Inhibition of Glyoxalases and Their Use Against Bacteria” (BIOMAC PRIVATINSTITUT FUR MEDIZINISHE UND ZAHMEDIZ …, priority 2005, published 2010)
# Experiments:
# [1] = test system: yeast glyoxalase II; experiment: Enzymatic activity of yeast glyoxalase II (cell free extract, DTNB, 412 nm); assay type: biochemical, Saccharomyces cerevisiae; details: 0-20 mM; FIG. 4
# Experimental: Protein concentration of the cell free extract was determined according to the Bradford method (Bradford, 1976).
# The activity of the glyoxalase II (Hydroxyacyl glutathione hydrolase, E.C. 3.1.2.6.) was determined according to the instructions of Martins et al. (1999) in 0.1 M MES buffer, pH 6.5, 1.5 mM S-D-lactoyl-glutathione (L7140, Sigma-Aldrich Chemistry GmbH) and 0.75 mM DTNB (Sigma, D8130). After addition of suitable amounts of cell extract and an incubation period of 15 min at 25° C. the formation of glutathione was measured at 412 nm (ε=13.6 mM^−1 cm^−1). The activity of the glyoxalase II (IU) correlates with the amount of enzyme hydrolysing 1 μmol of S-D-lactoyl-glutathion/min.
# The influence of ethyl pyruvate on the activity of the enzyme was investigated by adding increasing concentrations of EP (Sigma, No. E4, 780-8; Lot. S18972-513) (0-20 mM) to the measurement reagent.
# [2] = biological target: T1, glyoxalase I of human erythrocytes (Homo sapiens, UniProt Q04760); experiment: Enzymatic activity of human erythrocyte glyoxalase I (erythrocyte lysate); assay type: biochemical; details: 0-50 mM; FIG. 5
# T1 construct: from tissue; host or cells: human erythrocyte lysate
# T1 sequence (Q04760 2-184 limits assumed): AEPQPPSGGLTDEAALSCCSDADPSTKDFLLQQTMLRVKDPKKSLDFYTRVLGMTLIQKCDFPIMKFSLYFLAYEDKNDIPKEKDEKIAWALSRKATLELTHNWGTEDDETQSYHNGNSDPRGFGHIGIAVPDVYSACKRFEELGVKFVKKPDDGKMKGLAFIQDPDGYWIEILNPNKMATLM
# Experimental: The determination of glyoxalase I was performed as described above for the yeast enzyme. After the formation of the hemithioacetal, suitable amounts (5 to 100 μl) of an erythrocyte lysate were added to 1 ml of the measuring reagent to start the reaction. The erythrocyte lysate was prepared according to the instructions of Mannervik et al. (1982).
# Glyoxalase activity (IU) corresponds to the amount of enzyme forming 1 μmol of S-D-lactoyl-glutathione/min.
# Determination of glyoxalase I activity was performed according to the general protocol as described above. The influence of ethyl pyruvate on enzyme activity was investigated by addition of increasing concentrations of EP (Sigma; no. E4, 780-8; lot. S18972-513) (0-50 mM) to the measuring reagent.
# [3] = test system: primary human skin fibroblasts; experiment: Vitality of primary human fibroblasts (dye exclusion count); assay type: cell-based; details: 1-50 mM, serum free medium, 24 hours; FIG. 7
# Experimental: An identical number (10^4 cells per well) of primary human skin fibroblasts were inoculated in 24-well plates (Greiner, no. 662160) and were cultured in DMEM (Gibco; no. 41966-092) in the presence of 10% calf serum (Biochrom, S0113/5), 2 mM L-glutamine (Gibco; no. 25030-024), penicillin/streptomycin (100 units penicillin/ml; 100 μg streptomycin/ml, Gibco; no. 15140/122), 5 mg % ascorbic acid (Serva, no. 14030.02) at 37° C., 5% CO2 and 95% humidity. The primary human fibroblasts were prepared according to the instructions of Birkenmeier et al. (1998). After reaching 50% confluency the medium was by fresh serum free medium. Thereafter the following supplements were added to the cells: preparation 1 (equivalent volume of serum free (SF) medium, blank); preparation 2 (1 mM DEL or 1 mM LEL or 1 mM EP); preparation 3 (5 mM DEL or 5 mM LEL or 5 mM EP), preparation 4 (10 mM DEL or 10 mM LEL or 10 mM EP), preparation 5 (20 mM DEL or 20 mM LEL or 20 mM EP), preparation 6 (50 mM DEL or 50 mM LEL or 50 mM EP). The culture was continued at 37° C., 5% CO2 and 95% humidity for 24 hours. Thereafter the supernatants were removed and 100 μl of a 50% […] solution was added to the wells. After washing the cells with medium the unstained and stained cells were counted under the light optical microscope comprising a coordinate plane. Cells stained blue were assessed as avital, unstained cells as vital. The percentage of unstained cells of the total number of cells corresponds to the vitality of the cells.
# [4] = test system: biofilms (biofilm-forming microorganisms from pipe water); experiment: Destruction of biofilms on contaminated silicone surfaces (colony forming units); assay type: cell-based; details: for Colony forming units derivable from biofilms after treatment: normalized to 1 cm2 inner tube surface
# Experimental: Biofilms were allowed to generate in a silicon tube system according to Gebel et al. (2005). In short, pipe water from a public water distributor was used as the source of biofilm-forming microorganisms. Water flow was at about 20 l per hour through silicon tubes from two commercial suppliers with inner diameters of 4 mm for 30 days at 25° C. After that the tubes were emptied, sealed at both ends and treated on their outer surface with 0.2% peroxoacetic acid for 1 hour. Tubes were then rinsed with sterile water and afterwards cut into pieces of 5 cm length each using a sterile scalpel. Pieces obtained this way were then dipped into solutions which contained the substance to be tested or respective controls. 25 ml of the test solutions were used in closed Falcon tubes (50 ml). […] Tubes were opened over their full length with scissors and the material deposited at the original inner surfaces of the tubes homogenized in 10 ml of saline (9 g NaCl/l water). Dilutions were made (decimal steps to 10^4) and 0.1 ml of these solutions plated onto test agar plates (1 l contained 0.5 g yeast extract, 0.5 g peptone, 0.5 g casein hydrolysate, 0.5 g starch. 0.3 g potassium hydrogen phosphate, 24 mg magnesium sulphate, 0.3 g sodium pyruvate, 15 g agar). Plates were incubated for seven days at 20° C. Colonies which formed were counted on each plate independent of their appearance and color. […] Two dilutions must be consistent in colony numbers, taken into consideration the respective dilution factors. Numbers were normalized to 1 cm2 of the inner tube surface. Each substance was analysed in duplicates. Biofilms were treated with water (control), ethyl pyruvate […] Numbers are given for each of the different silicon tubes used.
# [5] = test system: different microbial species: Candida spp., Escherichia coli, Klebsiella oxytoca, Pseudomonas aeruginosa, Enterococcus faecalis, Enterococcus faecium, MRSA …; experiment: Agar dilution antimicrobial susceptibility test, aerobic conditions; details: 12.5 mM to 40 mM in agar, 37° C., 20 hours, 21 strains incl. ESBL and MRSA, FIG. 8
# Experimental: The agar dilution method was used for antimicrobial susceptibility test. A series of plates (petri dishes; Greiner, Cat No. 933161) were prepared with 20 ml agar medium (Iso-Sensitest-Agar Ca. No. CM474, OXOID, Germany) to which various concentrations of EP (12.5 mM to 40 mM) were added. Control agar plates were prepared without EP. The plates are then inoculated with a suitable-standardized suspension of the test microbial species (10^4 cfu) using an automated spotter (spots 1-21). The agar plates were incubated under aerobic conditions at 37° C. for 20 hours. At the respective positions of the spots growth (if permissive under the selected conditions) will result in the formation of cell discs. The evaluation of the test results is performed by inspecting the sizes of these discs. […]
compound,measurement,setting,value
CCOC(=O)C(C)=O [Ethyl pyruvate],Influence on the enzymatic activity of yeast glyoxalase II,[1],inhibits the reaction of yeast glyoxalase II in a concentration dependent manner
same,Inhibition of the enzymatic activity of glyoxalase I of human erythrocytes,[2],inhibits the reaction of glyoxalase I of human erythrocytes in a concentration dependent manner
same,Effect on the vitality of primary human fibroblasts,[3],not toxic over the concentration range investigated
same,Colony forming units derivable from biofilms after treatment,"[4]; 10 mM, 30 min, first silicon tube",4.9 × 10^3 colony forming units
same,Colony forming units derivable from biofilms after treatment,"[4]; 10 mM, 30 min, second silicon tube",5.2 × 10^3 colony forming units
same,Colony forming units derivable from biofilms after treatment,"[4]; 10 mM, 120 min, first silicon tube",1.6 × 10^3 colony forming units
same,Colony forming units derivable from biofilms after treatment,"[4]; 10 mM, 120 min, second silicon tube",1.7 × 10^3 colony forming units
same,Colony forming units derivable from biofilms after treatment,"[4]; 25 mM, 30 min, first silicon tube",4.4 × 10^2 colony forming units
same,Colony forming units derivable from biofilms after treatment,"[4]; 25 mM, 30 min, second silicon tube",4.2 × 10^2 colony forming units
same,Colony forming units derivable from biofilms after treatment,"[4]; 25 mM, 120 min, first silicon tube",<10^2 colony forming units
same,Colony forming units derivable from biofilms after treatment,"[4]; 25 mM, 120 min, second silicon tube",<10^2 colony forming units
same,number of colony forming units after treatment of biofilm,"[4]; 25 mM, decreases from about 10^7, Table 5",< 10^2 colony forming units
same,Effectiveness against biofilms compared to peroxoacetic acid,[4]; compared to 0.1% peroxoacetic acid,even more effective compared to a common disinfectant
same,Effect on growth of different microbial species,[5],effectively inhibits the growth and proliferation of different microbial species
